Results from paper PMC12064818, “A general assay platform to study protein pharmacology using ligand-dependent structural dynamics” (Nature Communications, 2025).

These compounds were tested against T1, FLuc-C-HiBiT (Photinus pyralis, UniProt P08659) (assay: biochemical). Conditions: enzyme activity, 10 uM ATP; read-out: IC50 or SDR50 (mM) / FLuc E.
T1 construct: firefly luciferase with C-terminal HiBiT tag, E. coli expressed
T1 sequence (P08659 whole entry, looked up): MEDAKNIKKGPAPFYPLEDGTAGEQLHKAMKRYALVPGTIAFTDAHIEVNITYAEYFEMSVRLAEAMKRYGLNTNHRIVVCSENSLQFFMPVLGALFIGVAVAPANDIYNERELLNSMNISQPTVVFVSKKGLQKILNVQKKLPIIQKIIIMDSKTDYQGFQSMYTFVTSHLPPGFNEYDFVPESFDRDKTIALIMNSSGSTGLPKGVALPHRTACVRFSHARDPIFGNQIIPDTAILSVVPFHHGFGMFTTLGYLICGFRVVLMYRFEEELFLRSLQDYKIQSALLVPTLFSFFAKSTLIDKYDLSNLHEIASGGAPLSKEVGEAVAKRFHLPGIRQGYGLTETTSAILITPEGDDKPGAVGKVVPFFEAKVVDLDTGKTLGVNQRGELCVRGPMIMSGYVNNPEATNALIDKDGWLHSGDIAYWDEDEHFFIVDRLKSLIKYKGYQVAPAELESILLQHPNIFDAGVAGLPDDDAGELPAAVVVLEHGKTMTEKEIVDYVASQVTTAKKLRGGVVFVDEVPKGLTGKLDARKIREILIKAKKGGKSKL
For `CCc1ccc(NC(=O)c2cc3ccccn3n2)cc1` [NCGC00127901-01], the IC50 was 1.76 µM. For `COc1cccc(-n2nnc(-c3nc(-c4ccccc4F)no3)c2C)c1` [NCGC00128608-01], the IC50 was 5.56 µM. `Cc1c(Cl)cccc1-n1nnc(-c2nc(-c3ccc4c(c3)OCO4)no2)c1C` [NCGC00128638-01] showed an IC50 of 11.1 µM. `CCc1cccc(-n2nnc(-c3nsc(NC(=O)c4cccs4)n3)c2C)c1` [NCGC00129048-01] showed an IC50 greater than 30 µM. In the case of `Cc1cn2c(=O)cc(COC(=O)c3ccccc3F)nc2s1` [NCGC00129878-01], the IC50 is reported as 6.24 µM. In the case of `COc1ccccc1NC(=O)CN1C(=O)CC(c2ccc(C)c(C)c2)=Nc2ccccc21` [NCGC00130405-01], the IC50 is reported as 12.4 µM. `Cc1ccc(OCC(=O)Nc2cccc(C(=O)OCc3cc(=O)n4nc(C)sc4n3)c2)cc1` [NCGC00130504-01] showed an IC50 of 7 µM. With `Cc1cn2c(=O)cc(COC(=O)c3cccc(NC(=O)COc4ccccc4Cl)c3)nc2s1` [NCGC00130619-01] the IC50 was 7 µM. Compound `COc1cccc(CN2CCc3nc(Nc4ccc5c(c4)OCCO5)ncc3C2)c1` [NCGC00131180-01] has an IC50 of 11.1 µM. `Cc1ccc(NC(=O)c2ncoc2-c2ccco2)cc1Cl` [NCGC00131543-01] gave an IC50 of 6.24 µM. For `COC(=O)C1CCN(c2csc3ccc(C)cc3c2=O)CC1` [NCGC00132290-01], the IC50 was 7.85 µM. `CCN1CCN(c2csc3ccc(Cl)cc3c2=O)CC1` [NCGC00132328-01] showed an IC50 of 12.4 µM. Compound `CC1CCCCN1c1csc2ccc(F)cc2c1=O` (centres unmarked) [NCGC00132384-01] has an IC50 of 8.81 µM. Work on `CC1CCc2nc3ncn(Cc4ccc(Cl)cc4)c(=O)c3cc2C1` (centres unmarked) [NCGC00132725-01] yielded an IC50 greater than 30 µM. In the case of `Cc1ccccc1CCNC(=O)c1ccc2c(c1)nc1n2CCCCC1` [NCGC00133334-01], the IC50 is reported as 0.881 µM. `O=C(NCCc1ccccc1Cl)c1ccc2c(c1)nc1n2CCCCC1` [NCGC00133356-01] gave an IC50 of 1.11 µM. `O=C(NCCc1ccccc1)c1ccc2c(c1)nc1n2CCOC1` [NCGC00133386-01] showed an IC50 of 8.81 µM. Work on `Cc1ccccc1CCNC(=O)c1ccc2c(c1)nc1n2CCOC1` [NCGC00133426-01] yielded an IC50 of 4.95 µM. `O=C(NCCc1ccccc1Cl)c1ccc2c(c1)nc1n2CCOC1` [NCGC00133432-01] showed an IC50 of 7 µM. For `CC(C)CCNC(=O)c1ccc2c(c1)nc1n2CCCCC1` [NCGC00133608-01], the IC50 was 9.89 µM. Work on `CCN(CC)[S+](=O)([O-])c1ccc2nc(NC(=O)c3cccnc3)sc2c1` [NCGC00134045-01] yielded an IC50 of 12.4 µM. In the case of `Cc1ccc(C)c(N2CCN(C(=O)C3CCN(c4nc(-c5ccc(C(C)C)cc5)no4)CC3)CC2)c1` [NCGC00134060-01], the IC50 is reported as 11.1 µM. With `Cc1ccc(NC(=O)C2CCN(c3nc(-c4ccc(C(C)C)cc4)no3)CC2)c(Cl)c1` [NCGC00134062-01] the IC50 was 14 µM. `Cc1ccc2nc(-c3ccc(NC(=O)c4ccc([S+](C)(=O)[O-])cc4)cc3)sc2c1` [NCGC00134160-01] showed an IC50 greater than 30 µM. With `CCSc1ccccc1C(=O)Nc1ccc(-c2nc3ccccc3s2)c(O)c1` [NCGC00134162-01] the IC50 was greater than 30 µM. `CC[S+](=O)([O-])c1ccccc1C(=O)Nc1ccc(-c2nc3ccccc3s2)cc1` [NCGC00134164-01] was tested, and the IC50 was greater than 30 µM. `CC[S+](=O)([O-])c1cccc(C(=O)Nc2ccc(-c3nc4ccccc4s3)c(O)c2)c1` [NCGC00134166-03] gave an IC50 of 4.42 µM. For `O=C(Nc1nc2c(F)cc(F)cc2s1)c1ccc2c(c1)OCCO2` [NCGC00134168-01], the IC50 was 1.76 µM. `O=c1oc2c(CN3CCCC3)c(O)ccc2cc1-c1ccccc1` [NCGC00134332-01] gave an IC50 greater than 30 µM. `Cc1ccc(C)c(N2CCN(C(=O)c3ccc(NC(=O)c4nsc5ccccc45)cc3)CC2)c1` [NCGC00134456-01] gave an IC50 of 9.89 µM. `COc1ccc(-c2cn3nc(SCC(=O)Nc4cc(C)cc(C)c4)ccc3n2)cc1` [NCGC00134460-01] showed an IC50 of 5.56 µM. For `COc1ccc(-c2cn3nc(SCC(=O)Nc4ccccc4F)ccc3n2)cc1` [NCGC00134464-01], the IC50 was 1.57 µM. `CCCCN(C)[S+](=O)([O-])c1ccc(C(=O)Nc2ccc(-c3nc4ccc(C)cc4s3)cc2)cc1` [NCGC00134689-02] showed an IC50 greater than 30 µM. Compound `Cc1ccc(C(=O)Nc2ccc(-c3nc4ccccc4s3)c(O)c2)c(C)c1` [NCGC00134691-01] has an IC50 greater than 30 µM. `COc1cccc(C(=O)Nc2ccc(-c3nc4ccc(C)cc4s3)cc2)c1OC` [NCGC00134693-01] was tested, and the IC50 was greater than 30 µM. Work on `CSc1ccc(C(=O)Nc2ccc(-c3nc4ccccc4s3)c(O)c2)cc1` [NCGC00134695-01] yielded an IC50 greater than 30 µM. In the case of `CCSc1ccc(C(=O)Nc2ccc(-c3nc4ccc(C)cc4s3)cc2)cc1` [NCGC00134697-01], the IC50 is reported as greater than 30 µM. `Cc1ccccc1Cn1cccc(C(=O)Nc2nc3ccccc3s2)c1=O` [NCGC00134725-01] was tested, and the IC50 was 0.881 µM. `CC(C)Oc1ccc(C(=O)Nc2nnc3n2CCS3)cc1` [NCGC00134921-01] gave an IC50 of 17.6 µM. For `O=C(COc1ccc(Cl)cc1)Nc1ccc(O)c(-c2nc3ccccc3s2)c1` [NCGC00135616-01], the IC50 was greater than 30 µM. Compound `COc1ccc(C(=O)Nc2ccccc2-c2nc3ccccc3s2)c(OC)c1` [NCGC00135640-01] has an IC50 greater than 30 µM. `O=C(Nc1ccccc1-c1nc2ccccc2s1)c1cc(Cl)cc(Cl)c1` [NCGC00135642-01] was tested, and the IC50 was greater than 30 µM. In the case of `COc1ccc(-c2nc(C)c(CCNC(=O)c3cccs3)s2)cc1` [NCGC00135787-01], the IC50 is reported as 11.1 µM. Compound `Cc1ccc(-c2nc(C)c(CCNC(=O)c3cccs3)s2)cc1` [NCGC00135815-01] has an IC50 of 17.6 µM. For `COc1ccc(-c2nc(C)c(CCNC(=O)c3c(F)cccc3F)s2)cc1` [NCGC00135823-01], the IC50 was greater than 30 µM. Work on `O=C(CSc1nccn1Cc1ccco1)Nc1ccc(OC(F)(F)F)cc1` [NCGC00136029-01] yielded an IC50 of 12.4 µM. Work on `O=C(CSc1nnc2[nH]c(=O)cc(-c3ccccc3)n12)Nc1ccc(OC(F)(F)F)cc1` [NCGC00136515-01] yielded an IC50 of 7 µM. In the case of `CCOc1ccc2nc(N(Cc3cccnc3)C(=O)c3cccs3)sc2c1` [NCGC00136637-01], the IC50 is reported as greater than 30 µM. Work on `CC(=O)c1ccc(NC(=O)CSc2nnc(NC(=O)Nc3ccccc3)s2)cc1` [NCGC00136900-01] yielded an IC50 of 0.881 µM. `CCOc1ccc2nc(N3CCN(C(=O)c4ccco4)CC3)sc2c1` [NCGC00137033-01] showed an IC50 of 12.4 µM. Compound `CCCC(=O)N1CCN(c2nc3ccc(F)cc3s2)CC1` [NCGC00137065-01] has an IC50 of 11.1 µM. Work on `Cc1c(CCNC(=O)c2ccc(Br)o2)sc2nc(-c3ccc(Cl)cc3)nn12` [NCGC00137117-01] yielded an IC50 of 12.4 µM. In the case of `O=C(Nc1ccc2c(c1)OCCO2)c1cccn(Cc2ccccc2)c1=O` [NCGC00137349-01], the IC50 is reported as 11.1 µM. `Cc1cccn2c(=O)c(C(=O)NCCc3ccccc3)cnc12` [NCGC00137532-01] gave an IC50 of 7 µM. In the case of `CN(C)c1cccc(C(=O)Nc2ccc(-c3nc4ccccc4s3)cc2)c1` [NCGC00137782-01], the IC50 is reported as 8.81 µM. In the case of `COc1cccc(CC(=O)Nc2ccc(-c3nc4ccccc4s3)cc2)c1` [NCGC00137800-01], the IC50 is reported as 8.81 µM. `COc1cccc(C(=O)Nc2ccc(-c3nc4ccccc4s3)cc2Cl)c1` [NCGC00137802-01] was tested, and the IC50 was greater than 30 µM. Compound `COc1ccc(CC(=O)Nc2ccc(-c3nc4ccccc4s3)cc2Cl)cc1OC` [NCGC00137804-01] has an IC50 greater than 30 µM. Compound `COc1cccc(CC(=O)Nc2ccc(-c3nc4ccccc4s3)cc2Cl)c1` [NCGC00137806-01] has an IC50 greater than 30 µM. In the case of `COc1ccc(CC(=O)Nc2ccc(-c3nc4ccccc4s3)cc2Cl)cc1` [NCGC00137808-01], the IC50 is reported as greater than 30 µM. Work on `Cc1cccc(C(=O)Nc2ccc(-c3nc4ccccc4s3)cc2Cl)c1` [NCGC00137810-01] yielded an IC50 greater than 30 µM. For `CCOc1cc(C(=O)Nc2ccc(-c3nc4ccccc4s3)cc2Cl)cc(OCC)c1OCC` [NCGC00137812-01], the IC50 was 12.4 µM. For `COc1cc(OC)cc(C(=O)Nc2ccc(-c3nc4ccccc4s3)c(C)c2)c1` [NCGC00137814-01], the IC50 was greater than 30 µM. Compound `COc1ccc(CC(=O)Nc2ccc(-c3nc4ccccc4s3)c(C)c2)cc1OC` [NCGC00137832-01] has an IC50 greater than 30 µM. `Cc1cc(NC(=O)c2ccccc2F)ccc1-c1nc2ccccc2s1` [NCGC00137834-01] gave an IC50 of 2.48 µM. In the case of `COc1ccc(CC(=O)Nc2ccc(-c3nc4ccccc4s3)c(C)c2)cc1` [NCGC00137836-01], the IC50 is reported as greater than 30 µM. Compound `Cc1cccc(C(=O)Nc2ccc(-c3nc4ccccc4s3)c(C)c2)c1` [NCGC00137838-01] has an IC50 of 9.89 µM. `COc1ccccc1C(=O)Nc1ccc(-c2nc3ccccc3s2)c(C)c1` [NCGC00137840-01] gave an IC50 of 9.89 µM. Work on `CCOc1ccc(C(=O)Nc2ccc(-c3nc4ccccc4s3)c(C)c2)cc1OCC` [NCGC00137842-01] yielded an IC50 greater than 30 µM. For `COc1ccc2cc(-c3nc4ccc(C(=O)O)cc4[nH]3)c(=O)oc2c1` [NCGC00138156-01], the IC50 was 0.0157 µM. `CCOc1cccc2cc(-c3nc4ccc(C(=O)O)cc4[nH]3)c(=O)oc12` [NCGC00138160-01] showed an IC50 of 0.157 µM. With `Cc1cccc(-n2ncc3c(N4CCCC(C)C4)ncnc32)c1` (centres unmarked) [NCGC00138848-01] the IC50 was 0.7 µM. Work on `Cc1ccc(Cl)cc1-n1ncc2c(N3CCC(C)CC3)ncnc21` [NCGC00138926-01] yielded an IC50 greater than 30 µM. `Cc1ccc(Cl)cc1-n1ncc2c(N3CCC(C(N)=O)CC3)ncnc21` [NCGC00138952-01] was tested, and the IC50 was greater than 30 µM. For `Fc1ccc(-n2ncc3c(N4CCCCCC4)ncnc32)cc1` [NCGC00138953-01], the IC50 was 1.24 µM. With `Cc1ccc(-n2ncc3c(NC4CCCC4)ncnc32)cc1` [NCGC00138985-01] the IC50 was 0.624 µM. `CCN(c1ncnc2c1cnn2-c1ccc(C)cc1)C1CCCCC1` [NCGC00138994-01] gave an IC50 of 0.881 µM. Compound `Cc1ccc(-n2ncc3c(N4CCN(C)CC4)ncnc32)cc1` [NCGC00139016-01] has an IC50 of 5.56 µM. With `Cc1ccc(-n2ncc3c(N4CCCCCC4)ncnc32)cc1` [NCGC00139018-01] the IC50 was 0.197 µM. Compound `Cc1ccc(-n2ncc3c(N4CCC(Cc5ccccc5)CC4)ncnc32)cc1` [NCGC00139020-01] has an IC50 greater than 30 µM. `Cc1ccc(-n2ncc3c(N4CCCCC4)ncnc32)cc1` [NCGC00139024-01] gave an IC50 of 0.197 µM. In the case of `Cc1ccc(-n2ncc3c(N(C)Cc4ccccc4)ncnc32)cc1` [NCGC00139028-01], the IC50 is reported as 1.57 µM. Work on `CC1CCN(c2ncnc3c2cnn3-c2ccc(F)cc2)CC1` [NCGC00139049-01] yielded an IC50 of 11.1 µM. `CC1CCCN(c2ncnc3c2cnn3-c2ccc(F)cc2)C1` (centres unmarked) [NCGC00139051-01] gave an IC50 of 0.7 µM. With `Fc1ccc(-n2ncc3c(N4CCC(Cc5ccccc5)CC4)ncnc32)cc1` [NCGC00139053-01] the IC50 was greater than 30 µM. For `Cc1ccc(-n2ncc3c(N4CCC(C(N)=O)CC4)ncnc32)cc1` [NCGC00139056-01], the IC50 was 12.4 µM.
